In paper PMC10525445, “Antitrypanosomal Activity of 1,2,3-Triazole-Based Hybrids Evaluated Using In Vitro Preclinical Translational Models” (Biology, 2023):
Entries after “also recorded” stand apart in the source; their conditions may differ. Read-outs that look alike come from different tables or passages of the source.

Experiments:
Assay type in all cases: cell-based, Trypanosoma cruzi
[1] = test system: intracellular amastigote of T. cruzi Dm28c-Luc; test: Drug combination assay with Bz (isobologram); settings: for xΣFICI (average of the sums of fractional inhibitory concentration index): combination with Bz, six ratios, additive xΣFICI > 0.5–1; for interaction with Bz: isobologram, intracellular amastigote
Procedure: The combination of promising candidates and Bz was performed using an isobologram method. Initial concentrations were determined by ensuring that IC50 concentrations of monotherapy compounds remained close to half in serial dilutions (1:3–6 concentrations). Solutions at the initial concentration of each compound were prepared and then mixed in proportions of 5:0, 4:1, 3:2, 2:3, 1:4, and 0:5 (v/v) of promising compounds and Bz, respectively. The anti-T. cruzi activity for the serial dilutions (1:3) of the ratios was then analyzed, as previously described. The IC50 values for each combination were used to determine the fractional inhibitory concentration index (FICI); thus, FICI(A) = IC50(A) in combination/IC50(A) alone and FICI(B) = IC50(B) in combination/IC50(B) alone. In addition, the sum of the FICIs for each proportion (∑FICI = FICI(A) + FICI(B)) and the average of the sums for the FICIs (xΣFICI) were calculated. The FICI values were plotted on an isobologram graph. The xΣFICI was applied as a classification criterion for interactions: as synergistic xΣFICI ≤ 0.5, additive xΣFICI > 0.5–1, without interaction xΣFICI > 1–4, and antagonistic for xΣFICI > 4.

[2] = test system: T. cruzi Dm28c-Luc in 3D cardiac spheroids; test: Drug efficacy in T. cruzi-infected 3D cardiac spheroids; settings: 72 h, 15 to 30 times the IC50, 1f maximum 50 µM
Procedure: Primary heart muscle cell cultures were obtained from fetuses of female Swiss Webster mice, as previously described. After heart removal and ventricle fragmentation, tissue fragments were dissociated in a trypsin and collagenase type II (Worthington Biochemical Corporation, Lakewood, USA) dissociation solution. For two-dimensional (2D) cultures, the isolated cardiac cells were seeded at a density of 5 × 10^4 cells/well in gelatin (0.1%)-coated 96-well white culture plates. Three-dimensional (3D) cardiac spheroids were obtained after seeding isolated heart muscle cells at a density of 2.5 × 10^4 cells/well in an agarose (1%)-coated 96-well U-bottom plate, as described in [35]. Heart muscle cells cultures were cultivated in Dulbecco’s modified Eagle medium (DMEM) supplemented with 7% FBS, 2.5 mM CaCl2, 2% embryo extract, and 1 mM L-glutamin and maintained at 37 °C in a humidified atmosphere of 5% CO2. All procedures with animals were approved by the Animal Care and Use Committee at the Oswaldo Cruz Institute (license L-017/2022).
A three-dimensional cardiac model was applied as a cell culture platform to test the efficacy of promising candidates. […] Microtissues were also incubated with DMSO (0.1%) and Bz (100 µM) as negative and positive controls, respectively. After luciferin addition (300 µg/mL), the luminescence was measured, and the data were expressed as arbitrary luminescence units (ALU).

[3] = test system: T. cruzi (Dm28c-Luc)-infected VERO cells; test: Short-term washout assay (3 days treatment, 3 days without compound)
Procedure: A washout assay was performed to evaluate the capacity of the promising candidates to eliminate all parasites. Thus, VERO cells, seeded in 96-well plates at a density of 1.5 × 10^4 cells/well, were infected with T. cruzi (Dm28c-Luc) at a 10:1 parasite–host cell ratio (24 h). Two treatment schedules were performed: 3 days with 30, 50, and 100 µM concentrations and 10 days with 30 and 60 times the IC50 concentrations. After treatment, the cultures were washed with PBS and kept for the same period in RPMI 1640 medium supplemented with 10% FBS without compound pressure. The culture medium was changed every 3 or 4 days during the time course, and the supernatant was harvested for luminescence reading after luciferin (300 µg/mL) addition. At the endpoint, the monolayers were also evaluated for parasite load. The luminescent signal was read using a Glomax reader. Bz (100 µM) and DMSO (≤1%) were used as positive and negative controls, respectively.

[4] = molecular target: trypomastigote forms of T. cruzi (Dm28c-Luc); test: Trypanocidal activity against trypomastigotes (luciferase luminescence, 24 h); settings: for Trypomastigotes SI: SI = CC50 of VERO cells/IC50 of trypomastigotes; for increase of activity compared with 1g (times): trypomastigotes
Procedure: (§1) A drug screen was carried out with Trypanosoma cruzi clone Dm28c genetically modified to express luciferase (Dm28c-luc), kindly provided by Dr. Cristina Henriques. The genetically modified T. cruzi clone Dm28c (Dm28c-Luc) has the firefly luciferase gene integrated into the genome, stably expressing the luminescent enzyme. The bioluminescent signal, proportional to the number of parasites, is produced by adding a D-luciferin substrate. Trypomastigotes were harvested from supernatants of VERO cell cultures, infected at a ratio of 10:1 parasite/host cells, 4 days post-infection (4 dpi). Parasites were used for phenotypic drug screening procedures. Luminescent parasites are a reliable and sensitive tool that allows precise quantification of parasite load. The use of genetically modified organisms was approved under license CQB 105/99.
All triazole analogs were analyzed for their biological activity against trypomastigote and intracellular amastigote forms of T. cruzi (Dm28c-Luc). Trypomastigotes (1.0 × 10^6 parasites/well) were incubated for 24 h at 37 °C with triazole derivatives and Bz at concentrations ranging from 0.04 to 100 µM. Luciferin (300 µg/mL), a luciferase substrate, was added to parasite suspensions to evaluate trypomastigotes viability. The luminescent signal was measured using a Glomax microplate reader. A maximal DMSO concentration (0.1%) was used as the negative control. The inhibitory concentration 50 (IC50) and 90 (IC90) against T. cruzi, which reduces the number of parasites by 50% and 90%, respectively, was calculated using linear regression. The selectivity index (SI), a ratio that measures the window between toxicity in mammalian cells and anti-T. cruzi activity (SI = CC50/IC50), was also determined.

[5] = test system: intracellular amastigote forms of T. cruzi (Dm28c-Luc); test: Activity against intracellular amastigotes in infected VERO cells (72 h); settings: for Intracellular Amastigotes SI: SI = CC50 of VERO cells/IC50 of intracellular amastigotes; for IC50 / IC90: infected VERO cells, 72 h, mean ± SD; for IC50: read-out: Trypanocidal Activity Intracellular Amastigotes IC50; for IC90: read-out: Trypanocidal Activity Intracellular Amastigotes IC90
Procedure: as §1
Activity against intracellular amastigotes was determined in cultures of VERO cells infected by T. cruzi (24 h), as previously described. Briefly, infected cultures were treated for 72 h at 37 °C with different concentrations of triazole derivatives (0.04–100 µM). Then, the culture supernatant was removed, and the viability of the intracellular parasites was evaluated after adding luciferin (300 µg/mL) to the cell monolayer followed by reading using the microplate reader. Anti-T. cruzi activity (IC50 and IC90) and SI values were determined. All experimental assays were performed at least 3 times in duplicate.

[6] = Trypanosoma cruzi, Dm28c-Luc, 24 h, mean ± SD
[7] = Trypanosoma cruzi, Dm28c-Luc, 24 h, mean ± SD, read-out: Trypanocidal Activity Trypomastigotes IC50
[8] = Trypanosoma cruzi, Dm28c-Luc, 24 h, read-out: pIC50 against trypomastigotes (converted)

Compound	xΣFICI (average of the sums of fractional inhibitory concentration index) [1]	interaction with Bz [1]	parasite load in 3D cardiac microtissue (luminescence) [2]	Trypomastigotes SI [4]	increase of activity compared with 1g (times) [4]	Intracellular Amastigotes SI [5]	IC90 [4, 6]	IC50 [4, 7]	IC50 [4, 8]	IC50 ([5]; Trypanosoma cruzi)	IC90 ([5]; Trypanosoma cruzi)	other results
4-Phenyl-1-(m-tolyl)-1H-1,2,3-triazole [Triazole 1f]	0.88	additive effect	significantly inhibited the viability of the parasites; also recorded: significantly reduce the parasite load	70.5	1.8 times	24.8						effect on parasite load ([3]; 30 µM): did not significantly reduce the parasite load; fold reduction in parasite load compared to untreated cultures ([3]; 50 µM): ~12 fold; parasite resurgence ([3]; 50 µM): did not prevent parasite resurgence; pIC50 against trypomastigotes ([4]; Dm28c-Luc, 24 h): 5.91; IC90 ([4]; Dm28c-Luc, 24 h, mean ± SD): 3.68 ± 0.6 µM; IC50 ([4]; Dm28c-Luc, 24 h, mean ± SD, read-out: Trypanocidal Activity Trypomastigotes IC50): 1.23 ± 0.24 µM; IC50 [5]: 3.5 ± 0.39 µM; IC90 [5]: 30.4 ± 0.4 µM
COc1ccc(-n2cc(-c3ccccc3)nn2)cc1 [Triazole 1d, 1-(4-Methoxyphenyl)-4-phenyl-1H-1,2,3-triazole]	0.93	additive effect	significantly inhibited the viability of the parasites; also recorded: significantly reduce the parasite load	>2380	11 times	>152	2.9 ± 0.16 µM	0.21 ± 0.03 µM	0.214 µM	3.27 ± 0.9 µM	> 100 µM	fold reduction in parasite load compared to untreated cultures ([3]; 100 µM): approximately 10 fold; parasite resurgence ([3]; 100 µM): did not prevent parasite resurgence
c1ccc(-c2cn(-c3ccccc3)nn2)cc1 [Triazole 1g, 1-(4-Diphenyl)-1H-1,2,3-triazole]	0.90	additive effect	did not effectively decrease the total number of viable intracellular parasites	>219		>80.6	> 100 µM	2.28 ± 0.34 µM	2.29 µM	6.2 ± 1.06 µM	> 100 µM	effect on parasite load / infection progression ([3]; 100 µM): did not significantly reduce the parasite load
